Laboratory results as given in US20260183297A1, “SELECTION OF PATIENTS FOR THE TREATMENT OF FADS1-MEDIATED DISEASES OR DISORDERS USING FADS-1 INHIBITORS” (AMGEN INC., priority 2022, published 2026).
Where two headings read alike, the source gives them in different places.

Legend:
FADS1 [1] = biological target: T1, FADS1 (Mus musculus, UniProt Q920L1); test: In vivo FADS1 activity measurement using blood plasma (13C5-DGLA to 13C5-AA conversion); conditions: for Plasma Avg % Conversion / inhibition at 30 mg/kg: DIO mice, single oral dose 30 mg/kg, 24 hours after dosing
T1 construct: Liver from ^13C5-DGLA dosed DIO mice was collected for pharmacodynamic (PD) analysis; from tissue; host or cells: living DIO C57Bl/6 mice; 13C5-DGLA to 13C5-AA conversion read in liver (A4) or blood plasma (A5)
T1 sequence (Q920L1 1-447): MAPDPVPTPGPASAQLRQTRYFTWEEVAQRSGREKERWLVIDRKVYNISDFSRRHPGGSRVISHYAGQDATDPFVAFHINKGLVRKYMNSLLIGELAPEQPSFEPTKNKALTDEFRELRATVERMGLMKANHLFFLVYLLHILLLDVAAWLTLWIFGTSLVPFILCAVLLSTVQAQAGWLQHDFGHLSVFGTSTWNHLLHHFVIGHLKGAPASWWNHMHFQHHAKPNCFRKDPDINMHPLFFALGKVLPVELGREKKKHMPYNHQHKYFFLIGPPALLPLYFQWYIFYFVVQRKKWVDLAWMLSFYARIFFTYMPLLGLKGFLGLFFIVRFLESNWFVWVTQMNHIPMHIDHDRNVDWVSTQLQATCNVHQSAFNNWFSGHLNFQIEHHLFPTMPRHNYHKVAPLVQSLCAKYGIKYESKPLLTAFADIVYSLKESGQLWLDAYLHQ
Method: FADS1 activity in the presence of Compounds B-E was also measured using blood plasma (in addition to using the liver). The above procedures were perforned to measure the in vivo activity of FADS1 using the liver. The following general procedures were used to measure FADS1 activity using blood plasma. Diet-induced obese (DIO) mice that were on 12 weeks of high fat diet were used to determine the pharmacokinetic (PK) and pharmacodynamic (PD) properties of test compounds. To determine the target coverage at 24 hours after dosing with a test compound (e.g., Compounds B-E, shown below), mice were IP dosed with 0.1 ml solution of ^13C5-DGLA (2 mM in 18.42 mM Na2CO3 buffer). Necropsy were performed at 30 minutes post ^13C5-DGLA dosing. EDTA Plasma was collected for PK and PD analysis.
For PD analysis, 50 μl of plasma or standards (pooled untreated mouse plasma with ^13C5-DGLA and ^13C5-AA added at concentration of 4.57 nM to 10 uM) were mixed with 10 μl of 90% methanol and 10 μl of 50 μg/mL of ALA-D14 as an internal standard (100 μM alpha-linolenic acid-d14 (ALA-d14, Cayman Chemical)) in a 96 well plate. 490 μl of chloroform:methanol (2:1) were added to each well. Plates were plated on a shaker for 5 min prior to adding 66.5 μl water. The plates were shaken for another 5 minutes, followed by centrifugation at 2000 RPM for 5 minutes. The bottom organic layer was transferred to a clean 96 well plate. 333 ul of chloroform:methanol (2:1) were added to the to the remaining liquid phase in the original plate. After 5 min of shaking, the plate was centrifuged at 2000 RPM for 5 minutes. The bottom layer was collected and combined with the first bottom layer. The combined layers were evaporated to dryness under a constant stream of nitrogen gas. After the plate has been dried, 100 μl of 2N NaOH was added to the mixture for subsequent saponification at 65° C. for 1 hour. The samples were then cooled to room temperature and the mixture was then acidified with 50 μl of formic acid followed by two consecutive chloroform:methanol (2:1) extractions. 500 μl of Chloroform:methanol (2:1) was added and the mixture thoroughly mixed by shaking. The plate was then centrifuged at 2,000 rpm for 5 min. The bottom chloroform phase was transferred to a new 2 mL 96 well plate and the remaining aqueous layer was extracted with another 250 μl of chloroform:methanol (2:1). The organic extracts were combined, and the solvent was evaporated to dryness by placing the plate under nitrogen. Extracts were then dissolved in 200 μl of acetonitrile/methanol (1:1). The plate was placed on a shaker for 30 minutes to ensure thorough mixing and dissolution of the extracted fatty acids. The plate was then centrifuged at 2000 RPM for 5 minutes. 80 μl of the samples were transferred to a new 96 well polypropylene plate for analysis on a LC-MS/MS for the following analytes: ^13C5-DGLA, ^13C5-AA, with ALA-d14 as the internal standard. Briefly describing the LC-MS/MS method: 20 μl of sample was injected onto a Poroshell 120 EC-C18 3.0×50 mm, 1.9 μm id column. Mobile phases were 80% acetonitrile containing 5 mM ammonium acetate for mobile phase A and 99.5% acetonitrile containing 5 mM ammonium acetate for mobile phase B. The LC gradient was a 3 min long method at a flow rate of 0.4 mL/minute consisting of 45% B at 0 to 0.5 min, followed by a 45% B to 100% B from 0.5 to 2.0 min; the system was then maintained at 100% B from 2.0 min to 2.5 min and returned to 45% B at 2.6 min and maintained until end of the method. The analyte peak areas were quantified by using the SCIEX Analyst software. To determine the degree of FADS1 inhibition, the in vivo FADS1 activity, POC, percent of inhibition, and in vivo IC50 values are calculated as described above for liver FADS1 activity measurement.

FADS1 [2] = biological target: T1, FADS1; test: In vivo FADS1 activity measurement using the liver (13C5-DGLA to 13C5-AA conversion); conditions: DIO mice, single oral dose 30 mg/kg, 24 hours after dosing; for inhibition at 30 mg/kg: mouse, read-out: Liver Avg % Inhibition
Method: Mice were then dosed by intraperitoneal injection with a solution comprising of a mixture of 0.1 ml solution of ^13C5-DGLA (2 mM in 18.42 mM Na2CO3 buffer). Necropsy were performed at 30 minutes post ^13C5-DGLA dosing. Liver from ^13C5-DGLA dosed DIO mice was collected for pharmacodynamic (PD) analysis and EDTA plasma was collected for compound exposure determination. For PD analysis, 150 mg of frozen liver tissue were premixed with ALA-D14 as an internal standard. Liver samples were homogenized and extracted twice with chloroform/methanol (2:1) solution. The organic phases for the two extractions were pooled and evaporated to dryness under nitrogen gas. The liver extract was resuspended in 200 μl 2N NaOH and saponified at 65° C. for 1 hour. After cooling to room temperature, 100 μl of formic acid was added and the mixture was subjected to two consecutive extractions with a chloroform:methanol (2:1) solution. The pooled organic phases were evaporated to dryness under nitrogen gas and resuspended in a solution containing acetonitrile and methanol at a ratio of 1:1. The extracts were then analyzed by LC/MS/MS for the following analytes: ^13C5-DGLA, ^13C5-AA, with ALA-d14 as the internal standard. The sample (20 μl) was injected onto a Poroshell 120 EC-C18 3.0×50 mm, 1.9 μm id column (Agilent, Santa Clara, CA). The analyte peak areas were quantified using the Analyst software (SCIEX, Framingham, […]). The residual in vivo FADS1 activity was calculated by taking the percent of substrate to product conversion normalized to the vehicle group to determine the percent of control (POC) and the percent inhibition relative to control (vehicle).
To determine the degree of FADS1 inhibition, the in vivo FADS1 activity as the percent of conversion calculated using the following equation: […]
The data were then normalized to the vehicle group to determine the percent of inhibition relative to control (vehicle) by the following equation: […]
To calculate the in vivo potency, dose response graphs were generated by plotting the plasma concentration of the test compound determined from the PK analysis on the abscissa, against the percent of control (POC, relative to vehicle) of the FADS1 activity for each mouse. The data points were then fitted by using the log(inhibitor) vs response nonlinear regression algorithm using GraphPad Prism (version 8.4.3, San Diego CA) to calculate the in vivo IC50 (total).
Free (unbound) IC50 and IC90 values were calculated by first calculating the unbound compound concentration in the plasma by multiplying the plasma concentration of test compound with the fraction unbound (fu) value in mouse plasma determined in the plasma protein binding study. A dose response curve was used to determine the unbound IC50 and IC90 by plotting the unbound plasma concentration of the compound on the abscissa, against the percent of control (POC, relative to vehicle) of FADS1 activity for each mouse. The data points were then fitted with a log (inhibitor) versus response nonlinear regression algorithm using GraphPad Prism (version 8.4.3, San Diego, CA) to calculate the in vivo IC50 (Free).

[3] = C57BL/6 DIO mice; cited from earlier work
[4] = HFD-fed DIO C57BL/6J mice; cited from earlier work

| Plasma Avg % Conversion (FADS1 [1]) [%] | inhibition at 30 mg/kg (FADS1 [1]; mouse) [%] | Liver Avg % Conversion (FADS1 [2]) [%] | inhibition at 30 mg/kg (FADS1 [2]) [%] | SMILES | also measured |
| --- | --- | --- | --- | --- | --- |
| 58.1 | 3.7 | 78.7 | 5.8 | COc1ccn2c(=O)c(-c3ccc(O[C@H](C)C#N)cc3)c(C(F)(F)F)nc2n1 [Compound E] |  |
| 25.1 | 58.3 | 34.5 | 58.7 | O=c1c(-c2ccc(OCC(F)(F)F)cc2)c(C(F)(F)F)nc2cc(CO)ccn12 [Compound D] |  |

The remaining lines, values behind:

| SMILES | Plasma Avg % Conversion (FADS1 [1]) [%] | inhibition at 30 mg/kg (FADS1 [1]; mouse) [%] | Liver Avg % Conversion (FADS1 [2]) [%] | inhibition at 30 mg/kg (FADS1 [2]) [%] | also measured |
| --- | --- | --- | --- | --- | --- |
| O=c1c(-c2cnn(CC(F)(F)C(F)(F)F)c2)c(C(F)(F)F)nc2cc(OCF)ccn12 [Compound F] |  |  |  |  | Free (unbound) in vivo IC95 (FADS1 [1]; blood plasma, unbound plasma concentration): 16.4 nM; IC50 (FADS1 [1]; blood plasma, unbound plasma concentration, read-out: Free (unbound) in vivo IC50): 5.62 nM; IC90 (FADS1 [1]; mouse, blood plasma, unbound plasma concentration, read-out: Free (unbound) in vivo IC90): 12.4 nM |
| Cc1c(C(=O)NN2CCCCC2)nn(-c2ccc(Cl)cc2Cl)c1-c1ccc(Cl)cc1 [rimonabant] |  |  |  |  | adipose tissue inflammation [3]: reduced adipose tissue inflammation; body weight [3]: reduce body weight; physical activity [3]: increased physical activity only in the light cycle |
| COc1ccc2c(c1)c(CC(=O)O)c(C)n2C(=O)c1ccc(Cl)cc1 [indomethacin] |  |  |  |  | body weight [4]: reduce body weight; insulin sensitivity [4]: improve insulin sensitivity |
